Assay results from ChEMBL document CHEMBL1201862, “PubChem BioAssay data set” (2004).
Active and inactive are the calls of the source.

How the values were obtained:
[1] = target: T1, Rac GTPase-activating protein 1 (Homo sapiens, UniProt Q9H0H5); test: MgcRacGAP GTPase-activating activity inhibitors, confirmation, biochemical, ADP Hunter fluorescence, primary and confirmatory (AID 624330); format: functional
T1 sequence (Q9H0H5 whole entry): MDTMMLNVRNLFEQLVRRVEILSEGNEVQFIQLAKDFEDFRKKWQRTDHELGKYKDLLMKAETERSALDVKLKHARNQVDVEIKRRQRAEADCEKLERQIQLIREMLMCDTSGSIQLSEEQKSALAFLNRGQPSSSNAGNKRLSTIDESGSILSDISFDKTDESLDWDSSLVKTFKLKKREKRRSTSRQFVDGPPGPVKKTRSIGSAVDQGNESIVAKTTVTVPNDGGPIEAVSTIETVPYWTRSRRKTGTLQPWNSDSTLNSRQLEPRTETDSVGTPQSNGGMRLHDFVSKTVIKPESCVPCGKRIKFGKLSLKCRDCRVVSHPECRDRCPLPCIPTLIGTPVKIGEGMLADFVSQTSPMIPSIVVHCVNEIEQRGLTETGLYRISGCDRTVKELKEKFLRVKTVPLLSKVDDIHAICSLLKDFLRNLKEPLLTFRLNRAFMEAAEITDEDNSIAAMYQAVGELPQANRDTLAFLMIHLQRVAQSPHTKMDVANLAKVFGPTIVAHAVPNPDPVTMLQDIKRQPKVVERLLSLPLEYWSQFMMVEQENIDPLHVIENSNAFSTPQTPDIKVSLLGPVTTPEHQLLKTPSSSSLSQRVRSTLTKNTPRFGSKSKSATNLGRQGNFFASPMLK

[2] = target: T2, Adenosylmethionine-8-amino-7-oxononanoate aminotransferase (Mycobacterium tuberculosis, UniProt P9WQ81); test: Mycobacterium tuberculosis BioA enzyme inhibitor Measured in Biochemical System Using Plate Reader - 2163-02_Inhibitor_Dose_CherryPick_Activity.; format: functional, Mycobacterium tuberculosis UT205
T2 sequence (P9WQ81 whole entry): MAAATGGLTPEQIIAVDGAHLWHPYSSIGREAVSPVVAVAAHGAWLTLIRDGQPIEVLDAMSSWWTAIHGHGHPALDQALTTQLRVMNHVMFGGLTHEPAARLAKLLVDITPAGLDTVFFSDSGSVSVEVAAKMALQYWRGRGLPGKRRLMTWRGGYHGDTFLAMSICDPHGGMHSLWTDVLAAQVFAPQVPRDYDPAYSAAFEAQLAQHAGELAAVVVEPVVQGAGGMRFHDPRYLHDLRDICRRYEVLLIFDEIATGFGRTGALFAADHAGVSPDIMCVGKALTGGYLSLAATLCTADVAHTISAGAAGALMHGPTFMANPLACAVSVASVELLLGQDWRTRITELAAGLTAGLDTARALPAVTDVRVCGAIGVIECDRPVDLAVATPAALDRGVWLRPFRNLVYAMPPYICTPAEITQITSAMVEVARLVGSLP

[3] = target: ADP-ribosylation factor GTPase-activating protein 1 (Rattus norvegicus, UniProt Q62848); test: Fluorescence polarization-based biochemical high throughput dose response screening assay to identify inhibitors of ADP-ribosylation factor GTPase activating protein 1 (ARFGAP1).; format: functional
Chain of ADP-ribosylation factor GTPase-activating protein 1 (Q62848 whole entry): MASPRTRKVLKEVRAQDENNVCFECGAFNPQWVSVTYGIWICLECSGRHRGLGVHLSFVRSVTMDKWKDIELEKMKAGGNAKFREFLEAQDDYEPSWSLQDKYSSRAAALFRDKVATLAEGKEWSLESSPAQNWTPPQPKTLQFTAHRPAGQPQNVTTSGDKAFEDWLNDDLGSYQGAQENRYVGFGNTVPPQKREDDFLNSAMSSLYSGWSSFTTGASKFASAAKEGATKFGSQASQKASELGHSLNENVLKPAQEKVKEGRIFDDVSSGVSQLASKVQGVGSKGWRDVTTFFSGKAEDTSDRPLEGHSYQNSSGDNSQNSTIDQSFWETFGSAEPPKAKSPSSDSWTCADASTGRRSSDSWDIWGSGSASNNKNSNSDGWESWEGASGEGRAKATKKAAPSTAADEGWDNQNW

[4] = NIH-3T3 fibroblast cytotoxicity, dose response, cytotoxicity control, cell-based, fluorescence, Alamar Blue, secondary assay (AID 2327); format: functional;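 also: NIH-3T3 mouse fibroblasts cultured with fluconazole at 8 µg/mL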
[5] = C. albicans growth with fluconazole, confirmation, fluorescence, retest (AID 2467); format: functional, cell-based
[6] = target: T3, Apoptotic protease-activating factor 1 (Homo sapiens, UniProt O14727); format: functional
T3 sequence (O14727 whole entry): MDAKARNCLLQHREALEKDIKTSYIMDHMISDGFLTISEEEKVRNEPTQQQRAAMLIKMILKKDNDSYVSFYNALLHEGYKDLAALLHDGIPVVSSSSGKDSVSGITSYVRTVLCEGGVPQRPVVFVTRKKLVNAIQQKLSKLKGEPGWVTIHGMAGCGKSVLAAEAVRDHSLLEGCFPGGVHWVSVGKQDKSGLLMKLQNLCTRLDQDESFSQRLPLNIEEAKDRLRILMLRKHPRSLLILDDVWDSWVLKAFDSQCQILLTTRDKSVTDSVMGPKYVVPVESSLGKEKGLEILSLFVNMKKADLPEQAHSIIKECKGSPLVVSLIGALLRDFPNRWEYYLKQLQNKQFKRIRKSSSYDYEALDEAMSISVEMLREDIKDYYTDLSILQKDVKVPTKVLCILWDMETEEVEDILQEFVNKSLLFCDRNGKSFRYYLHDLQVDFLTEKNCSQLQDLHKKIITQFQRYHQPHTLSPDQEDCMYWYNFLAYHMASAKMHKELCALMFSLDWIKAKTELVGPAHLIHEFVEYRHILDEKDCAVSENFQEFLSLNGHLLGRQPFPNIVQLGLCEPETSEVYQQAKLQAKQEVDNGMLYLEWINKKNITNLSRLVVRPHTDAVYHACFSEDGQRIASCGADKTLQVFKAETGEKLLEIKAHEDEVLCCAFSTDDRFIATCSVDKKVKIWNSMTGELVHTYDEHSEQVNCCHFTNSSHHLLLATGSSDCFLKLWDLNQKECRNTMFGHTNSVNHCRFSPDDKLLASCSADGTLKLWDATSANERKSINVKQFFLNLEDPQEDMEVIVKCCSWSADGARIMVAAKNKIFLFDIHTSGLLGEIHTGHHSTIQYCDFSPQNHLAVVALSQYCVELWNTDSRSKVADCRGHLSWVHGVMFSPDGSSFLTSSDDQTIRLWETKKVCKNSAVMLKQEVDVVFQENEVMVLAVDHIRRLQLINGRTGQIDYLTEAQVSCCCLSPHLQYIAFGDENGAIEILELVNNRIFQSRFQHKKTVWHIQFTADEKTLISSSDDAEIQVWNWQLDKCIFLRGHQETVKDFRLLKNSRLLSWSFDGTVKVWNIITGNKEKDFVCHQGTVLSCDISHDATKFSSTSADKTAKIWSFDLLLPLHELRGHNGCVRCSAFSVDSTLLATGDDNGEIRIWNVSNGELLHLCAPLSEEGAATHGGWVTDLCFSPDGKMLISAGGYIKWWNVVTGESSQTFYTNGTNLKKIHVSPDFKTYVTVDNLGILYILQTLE

[7] = target: T4, Sentrin-specific protease 1 (Homo sapiens, UniProt Q9P0U3); test: Dose response confirmation of small molecule inhibitors of the catalytic domain of the SUMO protease, SENP1 in a FRET assay.; format: functional; conditions: read-out: IC50_Mean
T4 sequence (Q9P0U3 whole entry): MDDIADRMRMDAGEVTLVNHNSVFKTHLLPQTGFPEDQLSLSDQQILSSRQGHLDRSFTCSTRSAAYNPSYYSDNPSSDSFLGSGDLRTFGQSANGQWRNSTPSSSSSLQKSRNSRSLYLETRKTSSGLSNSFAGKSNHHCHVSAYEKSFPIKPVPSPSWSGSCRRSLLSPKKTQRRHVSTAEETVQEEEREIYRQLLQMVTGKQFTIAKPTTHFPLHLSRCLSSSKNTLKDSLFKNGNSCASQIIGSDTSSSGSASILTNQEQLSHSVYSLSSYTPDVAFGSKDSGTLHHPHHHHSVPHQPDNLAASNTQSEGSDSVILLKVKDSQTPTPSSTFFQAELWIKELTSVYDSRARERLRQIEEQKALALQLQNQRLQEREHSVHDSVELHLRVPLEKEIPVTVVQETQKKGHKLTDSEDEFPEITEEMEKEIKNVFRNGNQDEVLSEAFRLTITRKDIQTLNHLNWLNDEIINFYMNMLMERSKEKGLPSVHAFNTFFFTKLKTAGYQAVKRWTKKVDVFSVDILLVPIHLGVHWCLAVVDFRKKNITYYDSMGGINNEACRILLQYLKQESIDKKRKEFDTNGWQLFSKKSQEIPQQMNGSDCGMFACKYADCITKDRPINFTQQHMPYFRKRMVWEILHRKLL

[8] = target: T4, Sentrin-specific protease 1; test: potency of human SENP1 inhibitors, dose response, biochemical, kinetic FRET (AID 651697); format: functional; conditions: read-out: IC50_Mean
[9] = Counterscreen for inhibitors of Trypanosoma brucei methionyl tRNA synthetase (MetRS): Luminescence-based cell-based high throughput dose response assay to identify compounds that are cytotoxic to Jurkat human T lymphocyte cells.; format: functional
[10] = target: T5, DNA repair and recombination protein RAD54-like (Homo sapiens, UniProt Q92698); test: inhibitors of human RAD54 branch migration, confirmation, biochemical, fluorescence, cherry-picked samples, dose series (AID 651657); format: functional
T5 sequence (Q92698 whole entry): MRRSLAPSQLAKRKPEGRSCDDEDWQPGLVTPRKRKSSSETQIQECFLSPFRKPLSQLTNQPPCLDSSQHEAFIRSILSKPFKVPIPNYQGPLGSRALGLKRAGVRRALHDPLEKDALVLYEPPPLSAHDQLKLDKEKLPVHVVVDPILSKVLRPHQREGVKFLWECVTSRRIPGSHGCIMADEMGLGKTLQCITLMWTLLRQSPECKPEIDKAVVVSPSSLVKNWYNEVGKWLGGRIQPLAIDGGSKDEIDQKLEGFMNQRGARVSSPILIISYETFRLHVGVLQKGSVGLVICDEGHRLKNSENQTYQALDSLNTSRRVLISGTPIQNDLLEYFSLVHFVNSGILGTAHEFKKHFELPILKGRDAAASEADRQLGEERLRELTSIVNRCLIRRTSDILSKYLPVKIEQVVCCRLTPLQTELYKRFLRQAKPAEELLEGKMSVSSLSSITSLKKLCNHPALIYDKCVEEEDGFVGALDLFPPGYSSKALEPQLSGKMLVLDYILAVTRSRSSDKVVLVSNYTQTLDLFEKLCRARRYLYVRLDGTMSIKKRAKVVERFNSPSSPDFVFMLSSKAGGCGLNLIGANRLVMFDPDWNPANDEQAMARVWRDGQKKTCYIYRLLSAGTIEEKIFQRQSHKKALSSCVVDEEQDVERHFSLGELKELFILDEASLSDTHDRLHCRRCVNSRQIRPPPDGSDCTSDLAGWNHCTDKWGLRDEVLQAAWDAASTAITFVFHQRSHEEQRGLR

INS1 = test: beta cell apoptosis inhibitors, cytokine rescue, dose response, luminescence, retest (AID 449756); format: functional, cell-based; conditions: Rattus norvegicus;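 also: cell death triggered by IL-1 beta plus TNF-alpha plus IFN-gamma mixture; protective hits raise ATP signal compared with cytokine alone wells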
[11] = target: T6, Ubiquitin-conjugating enzyme E2 N (Homo sapiens, UniProt P61088); format: functional;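 also: Dose-response confirmation in a TR-FRET assay detecting UBC13-driven polyubiquitin chain formation, inhibition measured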
T6 sequence (P61088 whole entry): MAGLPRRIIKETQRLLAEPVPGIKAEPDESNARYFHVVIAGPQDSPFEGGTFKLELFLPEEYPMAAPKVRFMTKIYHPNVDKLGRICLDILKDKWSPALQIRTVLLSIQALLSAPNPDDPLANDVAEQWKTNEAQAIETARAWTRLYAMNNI

[12] = inhibitors of firefly luciferase expression or activity, dose response, H4 neuroglioma cells, luminescence (AID 1990); format: functional, cell-based
[13] = inhibitors of SNCA 5'UTR-driven reporter translation, confirmation, H4 neuroglioma cells, luminescence (AID 1988); format: functional, cell-based
[14] = microbe, parasite or virus in culture; format: functional; conditions: Mycobacterium tuberculosis
[15] = Luminescence Cell-Based Dose Response HTS to Identify Inhibitors of 5'UTR Stem-Loop Driven Prion Protein mRNA Translation in H4 Neuroglioblastoma Cells. [Related pubchem assays: 1827 (Project Summary), 1813 (Primary HTS)]; format: functional
BJ [16] = test: cytotoxicity toward BJ-TERT-LT-ST fibroblasts, dose response, cell-based, RAS-independent, luminescence (AID 1935); format: functional; conditions: Homo sapiens;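 also: BJ fibroblasts immortalized with TERT plus LT and ST oncogenes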
BJ [17] = test: cells; format: functional, cell-based; conditions: Homo sapiens
[18] = cytotoxicity toward DRD oncogenic fibroblasts, dose response, cell-based, non-viral oncogenic, luminescence (AID 1934); format: functional; conditions: Homo sapiens
BJ [19] = test: cytotoxicity toward BJ-TERT fibroblasts, dose response, cell-based, RAS-independent, luminescence (AID 1933); format: functional; conditions: Homo sapiens

SMILES: COc1ccc(NC2CCCN(C(=O)c3ccc(C(C)=O)s3)C2)cc1 (stereo not given)
- IC50 [1]: 80.9 µM (active)
- AC50 [2]: 1.99 µM (active)

SMILES: Nc1nc(/C=C/c2cccnc2)nc(-c2ccccc2O)n1
- IC50 [3]: 165 µM (inactive)

SMILES: COc1cc(/C=C/C(=O)Nc2cccnc2)cc(OC)c1OC
- EC50 [4]: > 160 µM (inactive)
- AC50 [2]: 0.629 µM (active)
- EC50 [5]: > 38 µM (not active)

SMILES: COc1ccc2[nH]c(=O)c(CNc3ccccc3OC)cc2c1
- IC50 [6]: 51.4 µM (active)

SMILES: COc1cc(OC)cc(C(=O)Nc2ccccc2-c2nnn(CC(=O)Nc3cc(C)on3)n2)c1
- IC50 [3]: 72.6 µM (inactive)

SMILES: Nc1ccc2c(c1)C(=O)N(CC1CCCO1)C2=O (stereo not given)
- IC50 [7]: 8.2 µM (active)
- IC50 [8]: 11.1 µM (active)

SMILES: O=C(Cc1ccc(Br)cc1)NNC(=O)Nc1ccc(Cl)cc1
- IC50 [9]: 83.3 µM (inactive)

SMILES: Nc1c(C(=O)NCCN2CCOCC2)c2nc3ccccc3nc2n1-c1ccccc1
- AC50 [10]: 52 µM (active)

SMILES: Cc1ccc(NC2=C(C(=O)c3ccccc3)N(C)S(=O)(=O)c3ccccc32)cc1
- IC50 [7]: 15.4 µM (active)
- IC50 [8]: 26.2 µM (inactive)

SMILES: COc1ccc(CNC[C@@H](CCCCN(C)Cc2ccc(OC)cc2)N2C[C@H](c3ccccc3)N(CCc3ccc(Cl)c(Cl)c3)C(=O)C2=O)cc1
- AC50 (INS1): 7.7 µM (active)
- IC50 [11]: > 20 µM (inactive)
- EC50 [12]: > 120 µM (not active)
- EC50 [13]: 9.63 µM (active)
- CC50 [14]: 6.46 µM (active)
- EC50 [15]: > 120 µM (not active)
- IC50 [6]: 46.4 µM (active)

SMILES: O=C(c1ccc([N+](=O)[O-])o1)N(Cc1nnc(-c2ccccc2Cl)o1)C1CC1
- IC50 [6]: > 100 µM (inactive)

SMILES: COc1ccc(-c2cc(NC=O)c3ncc(-c4cccc(C(=O)N(C)C)c4)n3c2)cn1
- AC50 [2]: 11.2 µM (active)

SMILES: COc1ccc(/C=N/NC(=O)CCn2cnc(-c3ccccc3)c2-c2ccccc2)cc1
- EC50 (BJ [16]): 1.75 µM (active)
- EC50 (BJ [17]): 46.3 µM (active)
- EC50 [18]: 1.68 µM (active)
- EC50 (BJ [19]): 1.9 µM (active)
- IC50 [6]: 25.2 µM (active)

SMILES: O=c1[nH]c2cc3ccccc3cc2nc1-c1nnnn1Cc1ccccc1
- IC50 [7]: 7.19 µM (active)
- IC50 [8]: 15.8 µM (active)
